Experimental data taken from ChEMBL document CHEMBL1131149, “Acetylcholinesterase noncovalent inhibitors based on a polyamine backbone for potential use against Alzheimer's disease” (J Med Chem, 1998).

Tests used:
Cholinesterase = Cholinesterase (Homo sapiens, UniProt P06276)
Description: Inhibition of Butyrylcholinesterase (BChE) of human erythrocytes [-log IC50 (uM)]

Acetylcholinesterase [1] = target: T1, Acetylcholinesterase (Homo sapiens, UniProt P22303)
Description: Inhibition constant determined against Acetylcholinesterase (AChE) receptor.

Acetylcholinesterase [2] = target: T1, Acetylcholinesterase; remark: listed apart in the source
Description: Inhibition of acetylcholinesterase (AChE) of human erythrocytes

Cholinesterase, sequence (P06276 whole entry): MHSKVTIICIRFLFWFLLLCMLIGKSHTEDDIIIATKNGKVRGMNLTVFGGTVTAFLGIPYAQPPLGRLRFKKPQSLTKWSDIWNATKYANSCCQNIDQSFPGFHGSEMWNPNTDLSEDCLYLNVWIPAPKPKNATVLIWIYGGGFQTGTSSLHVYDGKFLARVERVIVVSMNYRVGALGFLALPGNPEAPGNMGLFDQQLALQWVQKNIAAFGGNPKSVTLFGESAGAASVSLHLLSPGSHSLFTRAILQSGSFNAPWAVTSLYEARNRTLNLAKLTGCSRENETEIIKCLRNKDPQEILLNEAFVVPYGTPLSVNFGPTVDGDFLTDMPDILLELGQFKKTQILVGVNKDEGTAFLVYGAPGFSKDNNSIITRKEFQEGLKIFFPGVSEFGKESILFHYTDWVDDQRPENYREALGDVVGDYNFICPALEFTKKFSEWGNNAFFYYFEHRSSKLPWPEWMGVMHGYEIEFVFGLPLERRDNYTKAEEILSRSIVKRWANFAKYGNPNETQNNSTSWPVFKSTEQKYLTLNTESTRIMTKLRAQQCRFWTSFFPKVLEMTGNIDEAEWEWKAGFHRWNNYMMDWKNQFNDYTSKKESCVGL
T1 sequence (P22303 whole entry): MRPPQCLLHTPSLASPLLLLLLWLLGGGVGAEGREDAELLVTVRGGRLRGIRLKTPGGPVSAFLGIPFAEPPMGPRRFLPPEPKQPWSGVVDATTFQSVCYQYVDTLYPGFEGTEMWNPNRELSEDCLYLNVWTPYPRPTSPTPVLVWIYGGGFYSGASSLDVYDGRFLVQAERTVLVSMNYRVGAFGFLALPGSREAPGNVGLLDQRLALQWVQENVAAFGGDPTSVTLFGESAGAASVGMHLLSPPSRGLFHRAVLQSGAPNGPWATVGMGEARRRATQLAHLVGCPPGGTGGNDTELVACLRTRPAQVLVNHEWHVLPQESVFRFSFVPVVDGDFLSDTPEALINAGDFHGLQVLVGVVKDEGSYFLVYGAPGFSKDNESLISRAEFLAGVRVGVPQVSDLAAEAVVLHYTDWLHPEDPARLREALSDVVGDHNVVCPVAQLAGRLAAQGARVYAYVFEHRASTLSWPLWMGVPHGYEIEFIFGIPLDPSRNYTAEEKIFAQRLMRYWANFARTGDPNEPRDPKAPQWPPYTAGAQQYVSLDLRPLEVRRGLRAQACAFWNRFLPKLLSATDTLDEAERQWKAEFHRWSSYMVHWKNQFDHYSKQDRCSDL

For COc1ccccc1CNCCCCCCNCCCCCCCCNCCCCCCNCc1ccccc1OC [METHOCTRAMINE], the IC50 (Cholinesterase) was 0.977 µM.
Molecule COc1ccccc1CN(C)CCCCCC(=O)N(C)CCCCCCCCN(C)C(=O)CCCCCN(C)Cc1ccccc1OC [CAPROCTAMINE] has an IC50 (Cholinesterase) of 11.7 µM, a Ki (Acetylcholinesterase [1]) of 0.000104 µM and an IC50 (Acetylcholinesterase [2]) of 0.17 µM.
COc1ccccc1CNCCCCCCNCCCCCCNCCCCCCNCc1ccccc1OC was tested, and the IC50 (Cholinesterase) was 1.38 µM and the IC50 (Acetylcholinesterase [2]) was 6.46 µM.
COc1ccccc1CNCCCCCC(=O)N(C)CCCCCCCCN(C)C(=O)CCCCCNCc1ccccc1OC showed an IC50 (Cholinesterase) of 6.03 µM and an IC50 (Acetylcholinesterase [2]) of 0.309 µM.
Work on COc1ccccc1CNCCCCCCNCCCCCNCCCCCCNCc1ccccc1OC yielded an IC50 (Cholinesterase) of 8.71 µM and an IC50 (Acetylcholinesterase [2]) of 7.24 µM.
In the case of NCCCCCCNCCSSCCNCCCCCCN, the IC50 (Cholinesterase) is reported as 646 µM and the IC50 (Acetylcholinesterase [2]) is reported as 501 µM.
Molecule COc1ccccc1CNCCCCCC(=O)NCCCCCCCCNC(=O)CCCCCNCc1ccccc1OC has an IC50 (Cholinesterase) of 11.5 µM and an IC50 (Acetylcholinesterase [2]) of 1.86 µM.
With COc1ccccc1CNCCCCCCNCCSSCCNCCCCCCNCc1ccccc1OC [BENEXTRAMINE] the IC50 (Cholinesterase) was 6.17 µM and the IC50 (Acetylcholinesterase [2]) was 7.24 µM.
With COc1ccccc1CNCCCCCCNCCCCCCCNCCCCCCNCc1ccccc1OC the IC50 (Cholinesterase) was 3.72 µM.
